{
  "source": "patent US12096773B2",
  "about": "“Herbicidal composition” (ISHIHARA SANGYO KAISHA, LTD., priority 2019, dated 2024)",
  "format_in_all_cases": "in vivo",
  "key": {"[1]": {"test_system": "black nightshade (Solanum nigrum L.)", "assay": "Example 4 pot test, foliar treatment, black nightshade", "excerpt": "(§1) Upland field soil was put into a 1/1,000,000 hectare pot, and seeds of black nightshade (Solanum nigrum L.), wild oat (Avena fatua L.) and dandelion (Taraxacum officinale) were sown."}, "[2]": {"test_system": "Kochia (Kochia scoparia L.)", "assay": "Example 6 pot test, foliar treatment, Kochia", "excerpt": "(§2) Upland field soil was put into a 1/1,000,000 hectare pot, and seeds of common ragweed (Ambrosia elatior L.) and Kochia (Kochia scoparia L.) were sown."}, "[3]": {"test_system": "yellow nutsedge (Cyperus esculentus L.)", "assay": "Example 5 pot test, foliar treatment, yellow nutsedge", "conditions": "22nd day after foliar treatment", "excerpt": "Upland field soil was put into a 1/1,000,000 hectare pot, and tubers of yellow nutsedge (Cyperus esculentus L.) were embedded."}, "[4]": {"test_system": "horseweed (Conyza canadensis(L.) Cron.)", "assay": "Example 2 pot test, foliar treatment of horseweed, visual growth inhibition", "conditions": "19th day after foliar treatment", "excerpt": "(§3) Upland field soil was put into a 1/1,000,000 hectare pot, and seeds of horseweed (Conyza canadensis(L.) Cron.) were sown."}, "[5]": {"test_system": "redroot pigweed (Amaranthus retroflexus L.)", "assay": "Example 9 pot test, foliar treatment, redroot pigweed", "excerpt": "(§4) Upland field soil was put into a 1/1,000,000 hectare pot, and seeds of redroot pigweed (Amaranthus retroflexus L.), Kochia (Kochia scoparia L.) and Chenopodium album L. var. centrorubrum Makino were sown."}, "[6]": {"test_system": "common ragweed (Ambrosia elatior L.)", "assay": "Example 6 pot test, foliar treatment, common ragweed", "excerpt": "as §2"}, "[7]": {"test_system": "Kochia (Kochia scoparia L.)", "assay": "Example 9 pot test, foliar treatment, Kochia", "excerpt": "as §4"}, "[8]": {"test_system": "Chenopodium album L. var. centrorubrum Makino", "assay": "Example 9 pot test, foliar treatment, Chenopodium album var. centrorubrum", "excerpt": "as §4"}, "[9]": {"test_system": "barnyardgrass (Echinochloa crus-galli L.)", "assay": "Example 8 pot test, foliar treatment, barnyardgrass", "excerpt": "(§5) Upland field soil was put into a 1/1,000,000 hectare pot, and seeds of goosegrass (Eleusine indica L.), barnyardgrass (Echinochloa crus-galli L.), giant foxtail (Setaria faberi Herrm.) and crabgrass (Digitaria sanguinalis L.) were sown."}, "[10]": {"test_system": "dandelion (Taraxacum officinale)", "assay": "Example 4 pot test, foliar treatment, dandelion", "excerpt": "as §1"}, "[11]": {"test_system": "horseweed (Conyza canadensis(L.) Cron.)", "assay": "Example 1 pot test, foliar treatment of horseweed, visual growth inhibition", "conditions": "21st day after foliar treatment", "excerpt": "as §3"}, "[12]": {"test_system": "horseweed (Conyza canadensis(L.) Cron.)", "assay": "Example 3 pot test, foliar treatment of horseweed, growth inhibition over time", "conditions": "for growth inhibition effect (in words): used alone, 19th day after the foliar treatment", "excerpt": "as §3"}, "[13]": {"test_system": "crabgrass (Digitaria sanguinalis L.)", "assay": "Example 8 pot test, foliar treatment, crabgrass", "excerpt": "as §5"}, "[14]": {"test_system": "giant foxtail (Setaria faberi Herrm.)", "assay": "Example 8 pot test, foliar treatment, giant foxtail", "excerpt": "as §5"}, "[15]": {"test_system": "goosegrass (Eleusine indica L.)", "assay": "Example 8 pot test, foliar treatment, goosegrass", "excerpt": "as §5"}, "[16]": {"test_system": "wild oat (Avena fatua L.)", "assay": "Example 4 pot test, foliar treatment, wild oat", "excerpt": "as §1"}},
  "data": [
    {"compound": "COC(=O)CCNC(=O)C(C)Sc1cc(-n2c(=O)cc(C(F)(F)F)n(C)c2=O)c(F)cc1Cl", "note": "(stereo not drawn) [Tiafenacil, tiafenacil]", "values": [
      {"measurement": "Growth inhibition rate (%) Black nightshade (27th day)", "setting": "[1]; dose 25 g/ha", "result": 58, "unit": "%"},
      {"measurement": "Growth inhibition rate (%) Kochia (10th day)", "setting": "[2]; dose 25 g/ha", "result": 30, "unit": "%"},
      {"measurement": "Growth inhibition rate (%) Kochia (10th day)", "setting": "[2]; dose 50 g/ha", "result": 30, "unit": "%"},
      {"measurement": "Growth inhibition rate (%) Yellow nutsedge", "setting": "[3]; dose 50 g/ha", "result": 35, "unit": "%"},
      {"measurement": "Growth inhibition rate (%)", "setting": "[4]; dose 25 g/ha", "result": 23, "unit": "%"},
      {"measurement": "Growth inhibition rate (%) Red root pigweed (8th day)", "setting": "[5]; dose 1 g/ha", "result": 50, "unit": "%"},
      {"measurement": "Growth inhibition rate (%) Common Ragweed (6th day)", "setting": "[6]; dose 25 g/ha", "result": 50, "unit": "%"},
      {"measurement": "Growth inhibition rate (%) Common Ragweed (6th day)", "setting": "[6]; dose 50 g/ha", "result": 50, "unit": "%"},
      {"measurement": "Growth inhibition rate (%) Kochia (14th day)", "setting": "[7]; dose 1 g/ha", "result": 13, "unit": "%"},
      {"measurement": "Growth inhibition rate (%) Kochia (14th day)", "setting": "[7]; dose 2 g/ha", "result": 23, "unit": "%"},
      {"measurement": "Growth inhibition rate (%) Chenopodium album L. var. centrorubrum Makino (14th day)", "setting": "[8]; dose 1 g/ha", "result": 3, "unit": "%"},
      {"measurement": "Growth inhibition rate (%) Chenopodium album L. var. centrorubrum Makino (14th day)", "setting": "[8]; dose 2 g/ha", "result": 30, "unit": "%"},
      {"measurement": "Growth inhibition rate (%) Barnyardgrass (11th day)", "setting": "[9]; dose 2.5 g/ha", "result": 30, "unit": "%"},
      {"measurement": "Growth inhibition rate (%) Dandelion (10th day)", "setting": "[10]; dose 25 g/ha", "result": 30, "unit": "%"},
      {"measurement": "Growth inhibition rate (%)", "setting": "[11]; dose 25 g/ha", "result": 33, "unit": "%"},
      {"measurement": "Growth inhibition rate (%)", "setting": "[11]; dose 50 g/ha", "result": 40, "unit": "%"},
      {"measurement": "Growth inhibition rate (%) 19th day", "setting": "[12]; dose 50 g/ha", "result": 23, "unit": "%"},
      {"measurement": "Growth inhibition rate (%) 27th day", "setting": "[12]; dose 50 g/ha", "result": 20, "unit": "%"},
      {"measurement": "Growth inhibition rate (%) 42nd day", "setting": "[12]; dose 50 g/ha", "result": 20, "unit": "%"},
      {"measurement": "Growth inhibition rate (%) 19th day", "setting": "[12]; dose 100 g/ha", "result": 50, "unit": "%"},
      {"measurement": "Growth inhibition rate (%) 27th day", "setting": "[12]; dose 100 g/ha", "result": 43, "unit": "%"},
      {"measurement": "Growth inhibition rate (%) 42nd day", "setting": "[12]; dose 100 g/ha", "result": 30, "unit": "%"},
      {"measurement": "growth inhibition effect (in words)", "setting": "[12]", "result": "no sufficient growth inhibition effect"},
      {"measurement": "Growth inhibition rate (%) Crabgrass (18th day)", "setting": "[13]; dose 2.5 g/ha", "result": 30, "unit": "%"},
      {"measurement": "Growth inhibition rate (%) Giant foxtail (7th day)", "setting": "[14]; dose 2.5 g/ha", "result": 80, "unit": "%"}
    ]},
    {"compound": "CCn1ncc(C(=O)c2ccc(S(C)(=O)=O)c(OCCOC)c2C)c1OC(C)OC(=O)OC", "note": "(stereo not drawn) [Tolpyralate, tolpyralate]", "values": [
      {"measurement": "Growth inhibition rate (%) Black nightshade (27th day)", "setting": "[1]; dose 15 g/ha", "result": 72, "unit": "%"},
      {"measurement": "Growth inhibition rate (%) Black nightshade (27th day)", "setting": "[1]; dose 30 g/ha", "result": 79, "unit": "%"},
      {"measurement": "Growth inhibition rate (%) Black nightshade (27th day)", "setting": "[1]; dose 50 g/ha", "result": 78, "unit": "%"},
      {"measurement": "Growth inhibition rate (%) Kochia (10th day)", "setting": "[2]; dose 15 g/ha", "result": 15, "unit": "%"},
      {"measurement": "Growth inhibition rate (%) Kochia (10th day)", "setting": "[2]; dose 30 g/ha", "result": 20, "unit": "%"},
      {"measurement": "Growth inhibition rate (%) Kochia (10th day)", "setting": "[2]; dose 50 g/ha", "result": 15, "unit": "%"},
      {"measurement": "Growth inhibition rate (%) Yellow nutsedge", "setting": "[3]; dose 15 g/ha", "result": 40, "unit": "%"},
      {"measurement": "Growth inhibition rate (%) Yellow nutsedge", "setting": "[3]; dose 30 g/ha", "result": 50, "unit": "%"},
      {"measurement": "Growth inhibition rate (%) Goosegrass (5th day)", "setting": "[15]; dose 1.5 g/ha", "result": 15, "unit": "%"},
      {"measurement": "Growth inhibition rate (%) Goosegrass (5th day)", "setting": "[15]; dose 3 g/ha", "result": 15, "unit": "%"},
      {"measurement": "Growth inhibition rate (%) Goosegrass (5th day)", "setting": "[15]; dose 5 g/ha", "result": 23, "unit": "%"},
      {"measurement": "Growth inhibition rate (%) Wild oat (21st day)", "setting": "[16]; dose 15 g/ha", "result": 10, "unit": "%"},
      {"measurement": "Growth inhibition rate (%) Wild oat (21st day)", "setting": "[16]; dose 30 g/ha", "result": 28, "unit": "%"},
      {"measurement": "Growth inhibition rate (%) Wild oat (21st day)", "setting": "[16]; dose 50 g/ha", "result": 30, "unit": "%"},
      {"measurement": "Growth inhibition rate (%)", "setting": "[4]; dose 125 g/ha", "result": 33, "unit": "%"},
      {"measurement": "Growth inhibition rate (%)", "setting": "[4]; dose 250 g/ha", "result": 37, "unit": "%"},
      {"measurement": "Growth inhibition rate (%) Red root pigweed (8th day)", "setting": "[5]; dose 1.5 g/ha", "result": 23, "unit": "%"},
      {"measurement": "Growth inhibition rate (%) Red root pigweed (8th day)", "setting": "[5]; dose 3 g/ha", "result": 25, "unit": "%"},
      {"measurement": "Growth inhibition rate (%) Red root pigweed (8th day)", "setting": "[5]; dose 5 g/ha", "result": 30, "unit": "%"},
      {"measurement": "Growth inhibition rate (%) Common Ragweed (6th day)", "setting": "[6]; dose 15 g/ha", "result": 15, "unit": "%"},
      {"measurement": "Growth inhibition rate (%) Common Ragweed (6th day)", "setting": "[6]; dose 30 g/ha", "result": 15, "unit": "%"},
      {"measurement": "Growth inhibition rate (%) Common Ragweed (6th day)", "setting": "[6]; dose 50 g/ha", "result": 10, "unit": "%"},
      {"measurement": "Growth inhibition rate (%) Kochia (14th day)", "setting": "[7]; dose 1.5 g/ha", "result": 10, "unit": "%"},
      {"measurement": "Growth inhibition rate (%) Kochia (14th day)", "setting": "[7]; dose 3 g/ha", "result": 23, "unit": "%"},
      {"measurement": "Growth inhibition rate (%) Kochia (14th day)", "setting": "[7]; dose 5 g/ha", "result": 25, "unit": "%"},
      {"measurement": "Growth inhibition rate (%) Chenopodium album L. var. centrorubrum Makino (14th day)", "setting": "[8]; dose 1.5 g/ha", "result": 10, "unit": "%"},
      {"measurement": "Growth inhibition rate (%) Chenopodium album L. var. centrorubrum Makino (14th day)", "setting": "[8]; dose 3 g/ha", "result": 10, "unit": "%"},
      {"measurement": "Growth inhibition rate (%) Chenopodium album L. var. centrorubrum Makino (14th day)", "setting": "[8]; dose 5 g/ha", "result": 15, "unit": "%"},
      {"measurement": "Growth inhibition rate (%) Barnyardgrass (11th day)", "setting": "[9]; dose 1.5 g/ha", "result": 45, "unit": "%"},
      {"measurement": "Growth inhibition rate (%) Barnyardgrass (11th day)", "setting": "[9]; dose 3 g/ha", "result": 45, "unit": "%"},
      {"measurement": "Growth inhibition rate (%) Barnyardgrass (11th day)", "setting": "[9]; dose 5 g/ha", "result": 40, "unit": "%"},
      {"measurement": "Growth inhibition rate (%) Dandelion (10th day)", "setting": "[10]; dose 15 g/ha", "result": 30, "unit": "%"},
      {"measurement": "Growth inhibition rate (%) Dandelion (10th day)", "setting": "[10]; dose 30 g/ha", "result": 30, "unit": "%"},
      {"measurement": "Growth inhibition rate (%) Dandelion (10th day)", "setting": "[10]; dose 50 g/ha", "result": 30, "unit": "%"},
      {"measurement": "Growth inhibition rate (%)", "setting": "[11]; dose 15 g/ha", "result": 33, "unit": "%"},
      {"measurement": "Growth inhibition rate (%)", "setting": "[11]; dose 30 g/ha", "result": 30, "unit": "%"},
      {"measurement": "Growth inhibition rate (%)", "setting": "[11]; dose 50 g/ha", "result": 30, "unit": "%"},
      {"measurement": "Growth inhibition rate (%) 19th day", "setting": "[12]; dose 5 g/ha", "result": 20, "unit": "%"},
      {"measurement": "Growth inhibition rate (%) 27th day", "setting": "[12]; dose 5 g/ha", "result": 47, "unit": "%"},
      {"measurement": "Growth inhibition rate (%) 42nd day", "setting": "[12]; dose 5 g/ha", "result": 23, "unit": "%"},
      {"measurement": "Growth inhibition rate (%) 19th day", "setting": "[12]; dose 10 g/ha", "result": 17, "unit": "%"},
      {"measurement": "Growth inhibition rate (%) 27th day", "setting": "[12]; dose 10 g/ha", "result": 37, "unit": "%"},
      {"measurement": "Growth inhibition rate (%) 42nd day", "setting": "[12]; dose 10 g/ha", "result": 47, "unit": "%"},
      {"measurement": "growth inhibition effect (in words)", "setting": "[12]", "result": "no sufficient growth inhibition effect"},
      {"measurement": "Growth inhibition rate (%) Crabgrass (18th day)", "setting": "[13]; dose 1.5 g/ha", "result": 30, "unit": "%"},
      {"measurement": "Growth inhibition rate (%) Crabgrass (18th day)", "setting": "[13]; dose 3 g/ha", "result": 40, "unit": "%"},
      {"measurement": "Growth inhibition rate (%) Crabgrass (18th day)", "setting": "[13]; dose 5 g/ha", "result": 50, "unit": "%"},
      {"measurement": "Growth inhibition rate (%) Giant foxtail (7th day)", "setting": "[14]; dose 1.5 g/ha", "result": 10, "unit": "%"},
      {"measurement": "Growth inhibition rate (%) Giant foxtail (7th day)", "setting": "[14]; dose 3 g/ha", "result": 30, "unit": "%"},
      {"measurement": "Growth inhibition rate (%) Giant foxtail (7th day)", "setting": "[14]; dose 5 g/ha", "result": 40, "unit": "%"}
    ]}
  ]
}
